The values below come from ChEMBL document CHEMBL1201862, “PubChem BioAssay data set” (2004).

Broadly, the AC50 is the concentration at which the activity in the assay is half-maximal. What is called IC50 is the point on the concentration scale where inhibition reaches its midpoint. Broadly, the Ki is the dissociation constant of the complex between target and ligand, obtained from inhibition or displacement. For orientation: EC50 means the concentration that produces a half-maximal response.

Molecules are shown by their SMILES. The source made the active and inactive calls. Where only a bound is given, the exact number is not on record here.

Test [1] has as its target T1, Microphthalmia-associated transcription factor (Homo sapiens, UniProt O75030).
T1 sequence (O75030 whole entry): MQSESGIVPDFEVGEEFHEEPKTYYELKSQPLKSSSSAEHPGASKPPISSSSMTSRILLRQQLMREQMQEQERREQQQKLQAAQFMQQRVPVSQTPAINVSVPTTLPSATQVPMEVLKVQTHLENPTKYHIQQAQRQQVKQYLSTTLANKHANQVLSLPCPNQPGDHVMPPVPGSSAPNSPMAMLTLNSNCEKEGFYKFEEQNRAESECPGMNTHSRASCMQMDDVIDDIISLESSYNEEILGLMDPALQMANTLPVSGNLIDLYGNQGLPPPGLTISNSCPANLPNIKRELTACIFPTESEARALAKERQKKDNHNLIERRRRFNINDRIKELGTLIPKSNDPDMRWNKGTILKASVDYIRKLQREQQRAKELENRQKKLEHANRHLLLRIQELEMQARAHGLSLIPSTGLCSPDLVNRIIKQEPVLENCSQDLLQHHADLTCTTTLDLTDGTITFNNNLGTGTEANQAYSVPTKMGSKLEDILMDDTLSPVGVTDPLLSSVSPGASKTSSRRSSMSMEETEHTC
The test is described as follows: reducers of TRPM1 reporter luminescence, concentration series – cell-based, SK-MEL-5, cherry-picked, set 3, MITF inhibitor project, dose response (AID 493073).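 Also: SK-MEL-5 melanoma cells with luciferase driven by the MITF target TRPM1 promoter.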 Type of test: functional.

Test [2] deals with T2, Orexin/Hypocretin receptor type 1 (Homo sapiens, UniProt O43613).
T2 sequence (O43613 whole entry): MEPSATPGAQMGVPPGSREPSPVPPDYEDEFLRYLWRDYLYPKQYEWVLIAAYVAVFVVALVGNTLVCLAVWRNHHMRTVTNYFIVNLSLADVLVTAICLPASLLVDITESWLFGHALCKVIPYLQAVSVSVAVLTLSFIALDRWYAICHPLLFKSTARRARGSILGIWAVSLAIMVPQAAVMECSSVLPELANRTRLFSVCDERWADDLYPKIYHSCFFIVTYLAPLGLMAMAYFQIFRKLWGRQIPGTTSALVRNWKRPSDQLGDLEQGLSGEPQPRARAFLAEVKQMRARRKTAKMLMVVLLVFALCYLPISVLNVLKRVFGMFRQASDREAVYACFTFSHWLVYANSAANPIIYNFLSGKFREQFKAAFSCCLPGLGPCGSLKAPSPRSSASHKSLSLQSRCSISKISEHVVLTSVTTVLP
Description: Homogeneous Time Resolved Fluorescence (HTRF)-based cell-based high throughput dose response assay for antagonists of the orexin 1 receptor (OX1R; HCRTR1). [Related pubchem assays (depositor defined):AID434989, AID435008, AID463079, AID485270, AID492963, AID492964, AID492965, AID493232, AID504717, AID504718]. Format: functional. (In general: In TR-FRET formats the signal depends on donor and acceptor labels being close together.)

In test [3] the target is Protein kinase C iota type (Homo sapiens, UniProt P41743). Format: functional.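 Also: measured within a kinome-wide kinase panel, PRKCI as panel member.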
For test [4], the target named is Fibroblast growth factor receptor 3 (Homo sapiens, UniProt P22607). Type of test: functional.
For test [5], the target named is Mitogen-activated protein kinase 8 (Homo sapiens, UniProt P45983). Type of test: functional.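 Also: value comes from one member of a kinome-wide kinase profiling panel.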
The target in test [6] is RAC-gamma serine/threonine-protein kinase (Homo sapiens, UniProt Q9Y243). Type of test: functional.
Test [7] relates to Streptococcus. Description: GAS UMAA2166 growth inhibition – luminescence, BacTiterGlo, counter-screen for streptokinase expression inhibitor project, dose response (AID 1915).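 Also: potency for reduction of bacterial viability or growth.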 Format: functional, organism-based.
In test [8] the target is Protein Tat (Human immunodeficiency virus type 1 group M subtype B (isolate HXB2)(HIV-1), UniProt P04608). Format: functional.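 Also: tat binding to TAR RNA read out by fluorescence polarization.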
Test [9] concerns the target T3, Apoptotic protease-activating factor 1 (Homo sapiens, UniProt O14727).
T3 sequence (O14727 whole entry): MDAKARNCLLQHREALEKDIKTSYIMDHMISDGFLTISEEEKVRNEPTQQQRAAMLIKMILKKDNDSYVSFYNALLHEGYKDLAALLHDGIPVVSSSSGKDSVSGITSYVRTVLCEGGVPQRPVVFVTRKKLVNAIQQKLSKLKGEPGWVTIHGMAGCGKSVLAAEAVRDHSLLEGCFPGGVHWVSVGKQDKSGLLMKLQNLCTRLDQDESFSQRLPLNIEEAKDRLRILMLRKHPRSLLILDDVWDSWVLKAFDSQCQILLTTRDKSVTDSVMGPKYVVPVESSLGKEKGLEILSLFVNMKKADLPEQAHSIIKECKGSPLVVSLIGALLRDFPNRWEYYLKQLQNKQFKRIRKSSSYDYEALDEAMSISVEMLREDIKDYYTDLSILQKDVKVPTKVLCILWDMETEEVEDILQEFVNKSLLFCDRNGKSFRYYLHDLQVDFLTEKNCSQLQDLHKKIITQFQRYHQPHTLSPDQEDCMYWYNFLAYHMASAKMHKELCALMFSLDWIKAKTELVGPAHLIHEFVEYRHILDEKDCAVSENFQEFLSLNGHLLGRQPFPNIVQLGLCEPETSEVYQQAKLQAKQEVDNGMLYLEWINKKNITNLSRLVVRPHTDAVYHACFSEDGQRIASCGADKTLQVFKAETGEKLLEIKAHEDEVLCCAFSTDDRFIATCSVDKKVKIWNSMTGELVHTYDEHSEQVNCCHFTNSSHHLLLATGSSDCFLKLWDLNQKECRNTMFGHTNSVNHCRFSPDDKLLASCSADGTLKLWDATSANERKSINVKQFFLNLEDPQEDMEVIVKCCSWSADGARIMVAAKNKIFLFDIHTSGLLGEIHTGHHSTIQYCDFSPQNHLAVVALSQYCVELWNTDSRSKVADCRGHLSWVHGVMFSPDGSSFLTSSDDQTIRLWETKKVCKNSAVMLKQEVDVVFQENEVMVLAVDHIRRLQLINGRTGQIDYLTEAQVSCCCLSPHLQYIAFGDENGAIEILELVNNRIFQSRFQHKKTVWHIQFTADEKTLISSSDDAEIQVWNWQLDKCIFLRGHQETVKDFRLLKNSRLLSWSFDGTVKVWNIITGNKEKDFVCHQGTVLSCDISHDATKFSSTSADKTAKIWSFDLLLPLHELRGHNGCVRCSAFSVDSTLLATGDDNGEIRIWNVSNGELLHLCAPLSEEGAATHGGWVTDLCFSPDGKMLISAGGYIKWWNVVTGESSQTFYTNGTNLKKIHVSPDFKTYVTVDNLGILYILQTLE
Type of test: functional.

Chain of Fibroblast growth factor receptor 3 (P22607 whole entry): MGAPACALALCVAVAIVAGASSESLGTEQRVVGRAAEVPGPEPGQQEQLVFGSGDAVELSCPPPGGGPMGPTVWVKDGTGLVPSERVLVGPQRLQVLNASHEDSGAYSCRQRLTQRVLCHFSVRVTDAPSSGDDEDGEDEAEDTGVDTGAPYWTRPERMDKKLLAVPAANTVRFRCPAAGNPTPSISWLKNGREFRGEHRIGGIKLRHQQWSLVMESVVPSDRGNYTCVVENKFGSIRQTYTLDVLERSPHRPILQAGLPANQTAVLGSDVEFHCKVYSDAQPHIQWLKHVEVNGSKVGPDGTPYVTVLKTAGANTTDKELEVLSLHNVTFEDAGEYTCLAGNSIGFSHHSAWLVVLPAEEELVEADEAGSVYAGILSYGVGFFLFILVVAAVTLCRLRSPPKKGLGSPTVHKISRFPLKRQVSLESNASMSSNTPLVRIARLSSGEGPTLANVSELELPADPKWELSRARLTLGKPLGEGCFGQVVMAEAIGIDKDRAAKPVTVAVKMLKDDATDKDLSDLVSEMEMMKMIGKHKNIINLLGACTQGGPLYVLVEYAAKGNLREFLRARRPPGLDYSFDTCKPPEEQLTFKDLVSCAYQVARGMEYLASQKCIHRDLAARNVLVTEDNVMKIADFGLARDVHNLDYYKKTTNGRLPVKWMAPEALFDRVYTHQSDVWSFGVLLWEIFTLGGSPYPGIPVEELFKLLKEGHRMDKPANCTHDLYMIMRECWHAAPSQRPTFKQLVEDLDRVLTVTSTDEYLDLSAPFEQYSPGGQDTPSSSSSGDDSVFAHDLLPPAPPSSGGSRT
Chain of Protein Tat (P04608 whole entry): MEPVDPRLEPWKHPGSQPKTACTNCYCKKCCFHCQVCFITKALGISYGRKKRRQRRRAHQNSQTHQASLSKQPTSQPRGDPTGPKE
Chain of Mitogen-activated protein kinase 8 (P45983 whole entry): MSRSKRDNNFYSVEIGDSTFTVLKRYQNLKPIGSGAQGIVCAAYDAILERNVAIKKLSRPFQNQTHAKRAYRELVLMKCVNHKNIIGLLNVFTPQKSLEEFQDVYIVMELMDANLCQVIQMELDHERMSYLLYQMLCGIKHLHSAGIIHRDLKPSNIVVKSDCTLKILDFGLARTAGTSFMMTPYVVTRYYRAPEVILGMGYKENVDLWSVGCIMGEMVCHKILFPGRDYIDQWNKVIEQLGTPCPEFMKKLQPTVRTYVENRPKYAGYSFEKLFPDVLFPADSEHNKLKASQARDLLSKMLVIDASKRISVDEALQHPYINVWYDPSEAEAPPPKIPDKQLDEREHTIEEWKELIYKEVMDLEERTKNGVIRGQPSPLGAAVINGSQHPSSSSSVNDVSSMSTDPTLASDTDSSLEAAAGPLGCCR
Chain of Protein kinase C iota type (P41743 whole entry): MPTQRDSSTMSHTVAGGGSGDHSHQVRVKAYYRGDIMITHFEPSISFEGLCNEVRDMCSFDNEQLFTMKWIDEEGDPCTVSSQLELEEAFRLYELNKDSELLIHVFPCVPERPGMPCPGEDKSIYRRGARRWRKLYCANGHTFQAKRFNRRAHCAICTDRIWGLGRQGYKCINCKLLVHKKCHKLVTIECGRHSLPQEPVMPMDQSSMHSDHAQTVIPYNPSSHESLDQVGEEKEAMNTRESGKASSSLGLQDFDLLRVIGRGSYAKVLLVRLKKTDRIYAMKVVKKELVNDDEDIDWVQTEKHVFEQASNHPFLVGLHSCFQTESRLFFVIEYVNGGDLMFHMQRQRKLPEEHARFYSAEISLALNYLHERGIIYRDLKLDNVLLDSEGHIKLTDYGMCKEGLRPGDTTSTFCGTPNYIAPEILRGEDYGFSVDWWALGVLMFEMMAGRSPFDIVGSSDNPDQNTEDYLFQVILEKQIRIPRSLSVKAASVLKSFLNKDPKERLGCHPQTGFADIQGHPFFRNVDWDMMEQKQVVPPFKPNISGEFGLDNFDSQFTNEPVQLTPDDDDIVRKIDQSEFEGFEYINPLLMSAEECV
Chain of RAC-gamma serine/threonine-protein kinase (Q9Y243 whole entry): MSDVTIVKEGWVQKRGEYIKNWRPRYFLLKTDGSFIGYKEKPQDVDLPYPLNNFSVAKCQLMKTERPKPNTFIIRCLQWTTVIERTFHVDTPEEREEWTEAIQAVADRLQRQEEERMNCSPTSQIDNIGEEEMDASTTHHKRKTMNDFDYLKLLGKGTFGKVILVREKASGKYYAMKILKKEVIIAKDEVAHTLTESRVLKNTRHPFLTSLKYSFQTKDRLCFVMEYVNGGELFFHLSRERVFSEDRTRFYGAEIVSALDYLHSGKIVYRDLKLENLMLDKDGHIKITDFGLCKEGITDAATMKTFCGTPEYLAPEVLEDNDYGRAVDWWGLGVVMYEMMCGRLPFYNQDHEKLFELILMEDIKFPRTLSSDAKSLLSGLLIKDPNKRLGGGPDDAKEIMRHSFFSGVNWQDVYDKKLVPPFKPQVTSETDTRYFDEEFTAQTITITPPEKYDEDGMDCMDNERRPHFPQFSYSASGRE

`C=CCNC1=C(Cl)C(=O)c2ccccc2C1=O`: the AC50 in test [1] was 4.06 µM (active).
For the compound `CN(C)c1ccc(-c2nnc(-c3cccs3)o2)cc1`, the 50% inhibitory concentration (IC50) in [2] was 3.58 µM (active).
For `COc1ccc(C(=O)Nc2n[nH]c3ccc(-c4cn(Cc5ccccc5)nn4)cc23)cc1OC`, the Ki in test [3] is 3.98 µM (active); in test [4] it was 158 nM (active); in test [5] it was 631 nM (active); in test [6] it was 1.26 µM (active).
On to `CCOC(=O)C(C(=O)OCC)c1cc(Br)c2noc3c2c1C(=O)c1ccccc1-3`, for which the EC50 in [7] is reported as > 150 µM (not active). Moreover, the half-inhibitory concentration (IC50) was 6.44 µM (inconclusive) in [8] and 47.7 µM (active) in test [9].
